Where only a bound is given, the exact number is not on record here.

The subject of one assay is NCI-H358 (K-Ras G12C). Nature of the assay: CellTiter-Glo cell viability assay, NCI-H358. Format: cell-based, human. The note with it: Homo sapiens, NCI-H358, 120 h, NCI-H358, 5-day treatment; class symbols; read-out: Additional H358 Cell Viability assay data (K-Ras G12C, IC50). The method, boiled down: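 Compounds dispensed directly onto seeded K-Ras mutant cells; plates read on day 5 after ~30 min equilibration to room temperature, by CellTiter-Glo luminescence. Signal normalized as (sample/mean DMSO)×100, then fitted to a four-parameter logistic curve.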
On the technique in general: ATP-based viability assays read luminescence as a measure of living cells.

For another assay, the target named is K-Ras G12C (Homo sapiens (Human), UniProt P01116+P62937, G12C). The assay is described as follows: Ras-Raf (BRAF RBD) disruption / FRET / MOA assay, KRAS G12C. Format: biochemical. Particulars: KRAS G12C; Ras-Raf disruption/FRET/MOA assay; read-out: IC50* KRAS G12C FRET data. The method, boiled down:
(§1)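 Compounds, top final concentration 30 μM in 10-point 3-fold series, incubated 3 hours at 25° C with nucleotide-loaded Ras, cyclophilin A and BRAF RBD.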

The target in the next assay is K-Ras G13C (Homo sapiens (Human), UniProt P01116+P62937, G13C). The assay is described as follows: Ras-Raf (BRAF RBD) disruption / FRET / MOA assay, KRAS G13C. It counts as biochemical. Particulars: KRAS G13C; Ras-Raf disruption/FRET/MOA assay; read-out: IC50* KRAS G13C FRET data. The method, boiled down: as §1
Another assay has as its target KRAS G12D (Homo sapiens (Human), UniProt P01116+P62937, G12D). Nature of the assay: Ras-Raf (BRAF RBD) disruption / FRET / MOA assay, KRAS G12D. Format: biochemical. Particulars: Ras-Raf disruption/FRET/MOA assay; class symbols; read-out: KRAS G12D FRET data IC50. The method, boiled down: as §1
The next assay concerns the target KRAS G12V (Homo sapiens (Human), UniProt P01116+P62937, G12V). The assay is described as follows: Ras-Raf (BRAF RBD) disruption / FRET / MOA assay, KRAS G12V. It counts as biochemical. The note with it: read-out: IC50* KRAS G12V FRET data. In a few lines: as §1
A further assay deals with KRAS WT (Homo sapiens (Human), UniProt P01116+P62937). Nature of the assay: Ras-Raf (BRAF RBD) disruption / FRET / MOA assay, KRAS WT. It counts as biochemical. The note with it: read-out: IC50* KRAS WT FRET data. In a few lines:
as §1

Another assay concerns the target KRAS G13D (Homo sapiens (Human), UniProt P01116+P62937, G13D). Nature of the assay: Ras-Raf (BRAF RBD) disruption / FRET / MOA assay, KRAS G13D. Format: biochemical. The note with it: read-out: IC50* KRAS G13D FRET data. In a few lines: as §1
The target in a further assay is KRAS Q61H (Homo sapiens (Human), UniProt P01116+P62937, Q61H). Nature of the assay: Ras-Raf (BRAF RBD) disruption / FRET / MOA assay, KRAS Q61H. It counts as biochemical. Particulars: Ras-Raf disruption/FRET/MOA assay; class symbols; read-out: KRAS Q61H FRET data IC50. In a few lines:
(§2)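 TR-FRET disruption of nucleotide-loaded Ras binding to BRAF RBD via compound-driven ternary complex with cyclophilin A. Compound as 10-point 3-fold series from 30 μM final, 3 h at 25° C, then anti-His Eu-W1024 (10 nM) and anti-GST allophycocyanin (50 nM) for 1.5 h. IC50 from decreased FRET ratio versus DMSO.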

In the next assay the target is NRAS Q61R (Homo sapiens (Human), UniProt P01111+P62937, Q61R). Nature of the assay: Ras-Raf (BRAF RBD) disruption / FRET / MOA assay, NRAS Q61R. It counts as biochemical. The note with it: NRAS Q61R; Ras-Raf disruption/FRET/MOA assay; read-out: IC50* NRAS Q61R FRET data. The method, boiled down:
as §2

The next assay has as its target NRAS WT (Homo sapiens (Human), UniProt P01111+P62937). Nature of the assay: Ras-Raf (BRAF RBD) disruption / FRET / MOA assay, NRAS WT. The note with it: read-out: IC50* NRAS WT FRET data. It counts as biochemical. In a few lines: as §2

Sequence of KRAS G13D (P01116-2 other isoform, or with tags, fused parts or gaps G13D): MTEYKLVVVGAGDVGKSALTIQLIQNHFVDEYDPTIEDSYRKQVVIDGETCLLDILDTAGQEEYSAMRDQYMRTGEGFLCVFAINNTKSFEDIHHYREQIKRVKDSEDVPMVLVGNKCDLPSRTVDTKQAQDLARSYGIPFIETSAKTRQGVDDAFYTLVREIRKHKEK
Sequence of KRAS G13D (P62937 whole entry): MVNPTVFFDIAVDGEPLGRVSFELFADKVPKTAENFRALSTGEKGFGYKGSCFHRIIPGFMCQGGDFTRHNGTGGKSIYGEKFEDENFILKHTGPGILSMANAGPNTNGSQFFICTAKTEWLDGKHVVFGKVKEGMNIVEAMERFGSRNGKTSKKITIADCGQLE
Sequence of K-Ras G13C (P01116-2 other isoform, or with tags, fused parts or gaps G13C): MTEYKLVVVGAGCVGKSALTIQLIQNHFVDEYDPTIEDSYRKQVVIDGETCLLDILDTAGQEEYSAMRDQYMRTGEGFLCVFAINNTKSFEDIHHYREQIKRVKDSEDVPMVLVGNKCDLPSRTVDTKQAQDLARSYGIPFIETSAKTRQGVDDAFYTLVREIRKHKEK
Sequence of K-Ras G13C (P62937 whole entry): as the sequence (P62937 whole entry) above
Sequence of KRAS G12D (P01116-2 other isoform, or with tags, fused parts or gaps G12D): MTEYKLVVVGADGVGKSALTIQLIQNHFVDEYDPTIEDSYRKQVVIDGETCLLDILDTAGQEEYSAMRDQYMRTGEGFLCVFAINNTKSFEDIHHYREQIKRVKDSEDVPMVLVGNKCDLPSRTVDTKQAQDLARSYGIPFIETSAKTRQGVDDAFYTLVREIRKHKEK
Sequence of KRAS G12D (P62937 whole entry): as the sequence (P62937 whole entry) above
Sequence of NRAS WT (P01111 whole entry): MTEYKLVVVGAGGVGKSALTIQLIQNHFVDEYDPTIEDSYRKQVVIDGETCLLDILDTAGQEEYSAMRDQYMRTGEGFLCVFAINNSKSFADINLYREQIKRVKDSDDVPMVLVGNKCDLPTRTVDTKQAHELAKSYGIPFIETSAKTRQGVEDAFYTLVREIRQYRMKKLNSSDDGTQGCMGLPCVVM
Sequence of NRAS WT (P62937 whole entry): as the sequence (P62937 whole entry) above
Sequence of K-Ras G12C (P01116-2 other isoform, or with tags, fused parts or gaps G12C): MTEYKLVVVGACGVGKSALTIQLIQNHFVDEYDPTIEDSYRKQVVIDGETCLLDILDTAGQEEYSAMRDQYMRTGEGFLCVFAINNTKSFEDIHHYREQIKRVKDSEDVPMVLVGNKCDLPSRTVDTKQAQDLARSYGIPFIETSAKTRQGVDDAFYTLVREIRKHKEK
Sequence of K-Ras G12C (P62937 whole entry): as the sequence (P62937 whole entry) above
Sequence of KRAS Q61H (P01116-2 other isoform, or with tags, fused parts or gaps Q61H): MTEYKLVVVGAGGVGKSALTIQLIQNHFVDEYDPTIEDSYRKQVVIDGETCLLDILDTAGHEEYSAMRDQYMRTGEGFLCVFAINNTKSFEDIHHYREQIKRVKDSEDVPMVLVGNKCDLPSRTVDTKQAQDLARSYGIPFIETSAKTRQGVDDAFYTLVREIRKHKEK
Sequence of KRAS Q61H (P62937 whole entry): as the sequence (P62937 whole entry) above
Sequence of KRAS G12V (P01116-2 other isoform, or with tags, fused parts or gaps G12V): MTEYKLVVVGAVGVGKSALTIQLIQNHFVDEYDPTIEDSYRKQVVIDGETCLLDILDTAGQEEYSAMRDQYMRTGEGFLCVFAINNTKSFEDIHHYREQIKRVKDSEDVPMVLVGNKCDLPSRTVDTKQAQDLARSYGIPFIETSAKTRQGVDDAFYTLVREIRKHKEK
Sequence of KRAS G12V (P62937 whole entry): as the sequence (P62937 whole entry) above
Sequence of KRAS WT (P01116-2 other isoform, or with tags, fused parts or gaps): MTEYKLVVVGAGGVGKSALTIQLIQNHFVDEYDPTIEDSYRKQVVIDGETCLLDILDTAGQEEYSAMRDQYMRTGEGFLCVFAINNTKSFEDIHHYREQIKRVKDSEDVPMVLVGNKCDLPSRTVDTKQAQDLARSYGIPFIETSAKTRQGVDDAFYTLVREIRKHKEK
Sequence of KRAS WT (P62937 whole entry): as the sequence (P62937 whole entry) above
Sequence of NRAS Q61R (P01111 whole entry Q61R): as the sequence (P01111 whole entry) above, with Q61R counted along it
Sequence of NRAS Q61R (P62937 whole entry): as the sequence (P62937 whole entry) above

The term IC50 denotes the midpoint of a concentration-inhibition curve. For the compound `C=CC(=O)N1CCC2(CC1)CN(C(=O)N(C)[C@H](C(=O)N[C@H]1Cc3nc(cs3)-c3ccc4c(c3)c(c(-c3cccnc3[C@H](C)OC)n4CC)CC(C)(C)COC(=O)[C@@H]3CCCN(N3)C1=O)C(C)C)C2` (atropisomer, axis not shown) [Example A702], the IC50 in the assay on NCI-H358 (K-Ras G12C) was in the range of 10 to 100 nM; at K-Ras G12C, 100 to 1000 nM; on K-Ras G13C, 100 to 1000 nM; on KRAS G12D it was 1000 to 10000 nM; at KRAS G12V, 100 to 1000 nM; at KRAS WT, 100 to 1000 nM. For the same compound, the IC50 on KRAS G13D fell in the range of 1000 to 10000 nM; at KRAS Q61H, 10 to 100 nM; at NRAS Q61R, 100 to 1000 nM; at NRAS WT it was 100 to 1000 nM.
As for `C=CC(=O)N(C)[C@H]1C[C@@H](N(C)C(=O)N(C)[C@H](C(=O)N[C@H]2Cc3nc(cs3)-c3ccc4c(c3)c(c(-c3cccnc3[C@H](C)OC)n4CC)CC(C)(C)COC(=O)[C@@H]3CCCN(N3)C2=O)C(C)C)C1` (atropisomer, axis not shown) [Example A704], the IC50 is < 10 nM in the assay with NCI-H358 (K-Ras G12C); 10 to 100 nM at K-Ras G12C; 100 to 1000 nM at K-Ras G13C; 100 to 1000 nM at KRAS G12D; 100 to 1000 nM on KRAS G12V; 10 to 100 nM on KRAS WT. In addition, the IC50 is 100 to 1000 nM on KRAS G13D, 10 to 100 nM on KRAS Q61H, 10 to 100 nM at NRAS Q61R and 10 to 100 nM on NRAS WT.
Take `C=CC(=O)N(C)[C@H]1C[C@H](N(C)C(=O)N(C)[C@H](C(=O)N[C@H]2Cc3nc(cs3)-c3ccc4c(c3)c(c(-c3cccnc3[C@H](C)OC)n4CC)CC(C)(C)COC(=O)[C@@H]3CCCN(N3)C2=O)C(C)C)C1` (atropisomer, axis not shown) [Example A712]: the IC50 in the assay with NCI-H358 (K-Ras G12C) is < 10 nM; on K-Ras G12C, 10 to 100 nM; on K-Ras G13C it was 100 to 1000 nM; on KRAS G12D, 100 to 1000 nM; at KRAS G12V it was 100 to 1000 nM; at KRAS WT, 10 to 100 nM. For the same compound, the IC50 on KRAS G13D is 100 to 1000 nM; at KRAS Q61H it was 10 to 100 nM; at NRAS Q61R it was 10 to 100 nM; on NRAS WT, 10 to 100 nM.
For `C=CC(=O)N1CCO[C@@H]2CN(C(=O)N(C)[C@H](C(=O)N[C@H]3Cc4nc(cs4)-c4ccc5c(c4)c(c(-c4cccnc4[C@H](C)OC)n5CC)CC(C)(C)COC(=O)[C@@H]4CCCN(N4)C3=O)C(C)C)C[C@@H]21` (atropisomer, axis not shown) [Example A714], the 50% inhibitory concentration (IC50) in the assay with NCI-H358 (K-Ras G12C) is < 10 nM; on K-Ras G12C it was 100 to 1000 nM; at K-Ras G13C, 10 to 100 nM; at KRAS G12D, 1000 to 10000 nM; at KRAS G12V, 100 to 1000 nM; at KRAS WT, 100 to 1000 nM. Further, the IC50 at KRAS G13D lay within 1000 to 10000 nM; on KRAS Q61H, 100 to 1000 nM; on NRAS Q61R, 100 to 1000 nM; on NRAS WT, 100 to 1000 nM.
Regarding `CCn1c(-c2cccnc2[C@H](C)OC)c2c3cc(ccc31)N1CCC[C@@H](C[C@H](NC(=O)[C@@H](COC3CN(C(=O)C#CC(C)(C)N(C)C)C3)C(C)C)C(=O)N3CCC[C@H](N3)C(=O)OCC(C)(C)C2)C1` (atropisomer, axis not shown) [Example A715, (2R)-2-(((1-(4-(dimethylamino)-4-methylpent-2-ynoyl)azetidin-3-yl)oxy)methyl)-N-((2^3S,6^3S,4S)-1^1-ethyl-1^2-(2-((S)-1-methoxyethyl)pyridin-3-yl)-10,10-dimethyl-5,7-dioxo-6^1,6^2,6^3,6^4,6^5,6^6-hexahydro-1^1H-8-oxa-1(5,3)-indola-6(1,3)-pyridazina-2(1,3)-piperidinacycloundecaphane-4-yl)-3-methylbutanamide], the IC50 in the assay with NCI-H358 (K-Ras G12C) was 10 to 100 nM; on K-Ras G12C, 10 to 100 nM; at K-Ras G13C, > 10000 nM; on KRAS G12D, > 10000 nM; on KRAS G12V, > 10000 nM; on KRAS WT it was > 10000 nM. Moreover, the IC50 at KRAS G13D, on KRAS Q61H, on NRAS Q61R and at NRAS WT was > 10000 nM each time.
`C=CC(=O)N1CCN(C(=O)N(C)[C@H](C(=O)N[C@H]2Cc3nc(cs3)-c3ccc4c(c3)c(c(-c3cccnc3[C@H](C)OC)n4CC)CC(C)(C)COC(=O)[C@@H]3CCCN(N3)C2=O)C(C)C)[C@@H]2CC[C@@H]21` (atropisomer, axis not shown) [Example A718]: the IC50 is < 10 nM with NCI-H358 (K-Ras G12C); 100 to 1000 nM at K-Ras G12C; 10 to 100 nM on K-Ras G13C; 1000 to 10000 nM at KRAS G12D; 100 to 1000 nM at KRAS G12V; 100 to 1000 nM at KRAS WT. The IC50 on KRAS G13D fell in the range of 100 to 1000 nM; on KRAS Q61H, 10 to 100 nM; at NRAS Q61R, 100 to 1000 nM; on NRAS WT, 100 to 1000 nM.
